Each structure is given as a SMILES string.

Consider 11 molecules from patent publication US20240150287A1, “N-(BENZOYL)-PHENYLALANINE COMPOUND, PHARMACEUTICAL COMPOSITION CONTAINING SAME, AND USE THEREOF” (Hangzhou Apeloa Medicine Research Institute Co., Ltd., priority 2021, published 2024).

Sequence of recombinant human integrin α4β7 (binding to recombinant human MAdCAM-1) (P13612 34-970): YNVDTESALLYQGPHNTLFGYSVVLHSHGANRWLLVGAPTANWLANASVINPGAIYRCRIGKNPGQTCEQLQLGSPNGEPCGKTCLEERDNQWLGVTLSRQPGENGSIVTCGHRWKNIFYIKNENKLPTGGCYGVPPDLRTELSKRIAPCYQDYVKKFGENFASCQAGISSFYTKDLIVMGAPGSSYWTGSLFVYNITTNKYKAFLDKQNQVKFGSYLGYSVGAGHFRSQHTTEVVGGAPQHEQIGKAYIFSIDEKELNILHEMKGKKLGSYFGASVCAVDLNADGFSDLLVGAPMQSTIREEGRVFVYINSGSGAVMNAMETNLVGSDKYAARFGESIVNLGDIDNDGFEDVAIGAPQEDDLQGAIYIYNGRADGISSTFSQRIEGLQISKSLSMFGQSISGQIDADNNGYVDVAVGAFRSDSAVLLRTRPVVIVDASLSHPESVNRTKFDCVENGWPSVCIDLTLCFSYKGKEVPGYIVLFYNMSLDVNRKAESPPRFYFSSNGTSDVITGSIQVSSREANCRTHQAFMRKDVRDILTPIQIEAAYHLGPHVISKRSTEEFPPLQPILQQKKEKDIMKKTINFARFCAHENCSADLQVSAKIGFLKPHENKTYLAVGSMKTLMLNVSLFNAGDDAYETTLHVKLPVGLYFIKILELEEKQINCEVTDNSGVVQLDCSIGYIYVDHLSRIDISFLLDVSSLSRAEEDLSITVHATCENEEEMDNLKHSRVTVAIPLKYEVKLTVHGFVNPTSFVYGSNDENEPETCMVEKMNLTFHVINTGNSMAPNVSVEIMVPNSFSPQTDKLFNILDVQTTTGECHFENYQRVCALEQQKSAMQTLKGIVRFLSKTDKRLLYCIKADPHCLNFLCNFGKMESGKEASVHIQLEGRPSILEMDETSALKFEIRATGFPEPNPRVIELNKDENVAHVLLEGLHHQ
Sequence of recombinant human integrin α4β7 (binding to recombinant human MAdCAM-1) (P26010 20-723): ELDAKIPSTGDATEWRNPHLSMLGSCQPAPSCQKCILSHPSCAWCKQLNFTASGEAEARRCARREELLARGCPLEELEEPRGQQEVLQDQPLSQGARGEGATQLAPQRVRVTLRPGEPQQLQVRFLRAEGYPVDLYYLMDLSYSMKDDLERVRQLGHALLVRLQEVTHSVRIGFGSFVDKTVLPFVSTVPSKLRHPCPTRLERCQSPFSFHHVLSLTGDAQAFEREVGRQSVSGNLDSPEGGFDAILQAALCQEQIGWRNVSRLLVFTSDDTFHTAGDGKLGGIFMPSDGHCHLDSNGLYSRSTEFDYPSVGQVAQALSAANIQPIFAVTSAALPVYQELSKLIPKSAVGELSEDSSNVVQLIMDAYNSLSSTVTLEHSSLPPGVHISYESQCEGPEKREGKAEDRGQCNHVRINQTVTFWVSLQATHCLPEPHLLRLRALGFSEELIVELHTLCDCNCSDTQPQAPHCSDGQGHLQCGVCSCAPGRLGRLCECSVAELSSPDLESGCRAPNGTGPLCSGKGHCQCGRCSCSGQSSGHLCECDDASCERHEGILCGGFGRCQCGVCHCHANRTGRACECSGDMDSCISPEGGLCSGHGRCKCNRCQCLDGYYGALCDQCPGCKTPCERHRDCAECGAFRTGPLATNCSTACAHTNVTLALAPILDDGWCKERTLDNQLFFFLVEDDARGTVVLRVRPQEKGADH

The target of this assay is recombinant human integrin α4β7 (binding to recombinant human MAdCAM-1) (Homo sapiens (Human), UniProt P13612+P26010). In words: MAdCAM-1/α4β7 integrin binding inhibition activity evaluation test (α4β7-MAdCAM-1 ELISA). Conditions: plate-coated recombinant human MAdCAM-1, recombinant human α4β7, 2 h room temperature, free form of compound. The method, then:
EXAMPLE: MADCAM-1/α4β7 INTEGRIN BINDING INHIBITION ACTIVITY EVALUATION TEST (α4β7-MADCAM-1 ELISA)
Coat the 96-well microplate (Costar) with 50 μL of recombinant human MAdCAM-1 (R&D Systems) solution per well, and incubate overnight (12-18 hours) at 4° C. Wash three times with 150 μL of TBS buffer per well. Block plate with 150 μL per well with blocking buffer for 1 h at 37° C. Wash three times with 150 μL of TBS buffer per well. Dilute the recombinant human integrin α4β7 (R&D Systems) with TBS buffer containing 0.1% bovine serum albumin (BSA), then add to the 96 well plate with 50 μL per well. Add 1 μL of test compound or DMSO, cover, incubate at room temperature for 2 h, wash three times with 150 μL of TBS buffer per well. Dilute the anti-β7 antibody (R&D Systems) with 0.1% BSA TBS buffer, then add to the 96 well plate with 50 μL per well, cover, incubate at room temperature for 1 h, wash three times with 150 μL of TBS buffer per well. Add 50 μL of streptavidin-HRP (R&D Systems) per well, incubate at room temperature for 20 min, wash three times with 150 μL of TBS buffer per well. Add 50 μL of TMB substrate solution (Sigma) per well, incubate at room temperature for 5-30 min, and add 25 μL of stop solution per well to stop the reaction. Finally, measure absorbance at 450 nm with microplate reader (SpectraMax 340PC. Molecular Devices). Repeat the test to find the binding rate of cells at each concentration when the absorbance of the well without the test substance is used as 100%, and calculate the concentration IC50 that causes 50% binding inhibition and summarize the results in Table 1.
It should be stated that, as a test compound, the free form of the compound synthesized in the above examples is used.
For orientation: An ELISA detects its analyte on a solid surface through an enzyme-linked reagent.
As to `O=C(N[C@@H](Cc1ccc(N2C(=O)C3(CC3)c3cc(F)c(F)cc32)cc1)C(=O)O)c1c(F)cccc1Cl` [Example 1, (S)-2-(2-chloro-6-fluorobenzamide)-3-(4-(5′,6′-difluoro-2′-oxospirino[cyclopropane-1,3′-indoline]-1′-yl)phenyl)propionic acid], the concentration for half-maximal inhibition (IC50) was 14.3 nM. For the molecule `O=C(N[C@@H](Cc1ccc(N2C(=O)C3(CC3)c3cccc(Cl)c32)cc1)C(=O)O)c1c(F)cccc1Cl` [Example 2, (S)-3-(4-(7′-chloro-2′-oxospiro[cyclopropane-1,3′-indoline]-1′-yl)phenyl)-2-(2-chloro-6-fluorobenzamide) propionic acid], the 50% inhibitory concentration (IC50) is 2.57 nM. As for `COc1cccc2c1N(c1ccc(C[C@H](NC(=O)c3c(Cl)cccc3Cl)C(=O)O)cc1)C(=O)C21CC1` [Example 3, (S)-2-(2,6-dichlorobenzamido)-3-(4-(7′-methoxy-2′-oxospiro[cyclopropane-1,3′-indoline]-1′-yl)phenyl)propionic acid], the IC50 was 5.48 nM. Take `O=C(N[C@@H](Cc1ccc(N2C(=O)C3(CC3)c3ccc(F)cc32)cc1)C(=O)O)c1c(Cl)cccc1Cl` [Example 4, (S)-2-(2,6-dichlorobenzamido)-3-(4-(6′-fluoro-2′-oxospiro[cyclopropane-1,3′-indoline]-1′-yl)phenyl)propionic acid]: the half-maximal inhibitory concentration (IC50) worked out at 2.54 nM. The figure for `O=C(N[C@@H](Cc1ccc(N2C(=O)C3(CC3)c3cccc(F)c32)cc1)C(=O)O)c1c(Cl)cccc1Cl` [Example 5, (S)-2-(2,6-dichlorobenzoylamino)-3-(4-(7′-fluoro-2′-oxospiro[cyclopropane-1,3′-indoline]-1′-yl)phenyl)propionic acid] is 2.87 nM; for `O=C(N[C@@H](Cc1ccc(N2C(=O)C3(CC3)c3ccccc32)cc1)C(=O)O)c1c(Cl)cccc1Cl` [Example 6, (S)-2-(2,6-dichlorobenzamido)-3-(4-(2′-oxospiro[cyclopropane-1,3′-indoline]-1′-yl)phenyl)propionic acid] it is 5.81 nM. Take `O=C(N[C@@H](Cc1ccc(N2C(=O)C3(CCOCC3)c3cccc(Cl)c32)cc1)C(=O)O)c1c(F)cccc1Cl` [Example 7, (S)-3-(4-(7-chloro-2-oxo-2′,3′,5′,6′-tetrahydrospiro[indoline-3,4′-pyran]-1-yl)phenyl)-2-(2-chloro-6-fluorobenzamide)propionic acid]: the 50% inhibitory concentration (IC50) turned out to be 16.1 nM.

For the molecule `O=C(N[C@@H](Cc1ccc(N2C(=O)C3(CC3)c3cc(F)c(Cl)cc32)cc1)C(=O)O)c1c(F)cccc1Cl` [Example 8, (S)-3-(4-(6′-chloro-5′-fluoro-2′-oxospiro[cyclopropane-1,3′-indoline]-1′-yl)phenyl)-2-(2-chloro-6-fluorobenzamide)propionic acid], the IC50 stood at 17.6 nM.

Turning to `O=C(N[C@@H](Cc1ccc(N2C(=O)C3(CC3)c3cc(F)ccc32)cc1)C(=O)O)c1c(F)cccc1Cl` [Example 9, (S)-2-(2-chloro-6-fluorobenzamide)-3-(4-(5′-fluoro-2′-oxospiro[cyclopropane-1,3′-indoline]-1′-yl)phenyl)propionic acid], the IC50 was found to be 95.5 nM. Under `CC1(C)C(=O)N(c2ccc(C[C@H](NC(=O)c3c(F)cccc3Cl)C(=O)O)cc2)c2c(Cl)cccc21` [Example 10, (S)-3-(4-(7-chloro-3,3-dimethyl-2-oxoindoline-1-yl)phenyl)-2-(2-chloro-6-fluorobenzamide)propionic acid] stands 38.8 nM. In the case of `CN(C)c1cc2c(cc1F)C1(CC1)C(=O)N2c1ccc(C[C@H](NC(=O)c2c(F)cccc2Cl)C(=O)O)cc1` [Example 11, (S)-2-(2-chloro-6-fluorobenzamide)-3-(4-(6′-(dimethylamino)-5′-fluoro-2′-oxospiro[cyclopropane-1,3′-indoline]-1′-yl)phenyl)propionic acid], the concentration for half-maximal inhibition (IC50) worked out at 3.05 nM.

The term IC50 denotes the concentration needed to halve the response being measured.
